# Source: US20220227765A1, “PYRIDO-INDOLE ANALOGUES AS GPX4 INHIBITORS” (Ferro Therapeutics, Inc., priority 2019, published 2022)
# Read-outs that look alike come from different tables or passages of the source.
# Legend:
# 786-O = assay: Cell proliferation (Alamar Blue) assay, 786-O; type: cell-based, human; settings: Homo sapiens, 786-0, 24 h
# Method: (§1) Cell viability assay was performed to assess the potency of the compounds in human cancer cell lines 786-0 (renal cell carcinoma) and SJSA-1 (osteosarcoma). Additional cell lines, such as pancreatic cancer cell lines (Panc 02.13, BxPC-3, Panc 12, Panc 02.03, Panc 6.03, PSN-1, HPAC, and Capan-1), prostate cancer cell lines (PC-3, DU145, 22Rv1, NCI-H660, BPH1, LNCaP, BM-1604, and MDA PCa 2b), etc., can be tested in a similar method.
# (§2) Cells (SJSA-1, 786-0 and A431) were seeded (5000 cells/100 μL/well) in 96-well tissue culture plate and incubated at 37° C./5% CO2 for 16-24 hours. The cells were then treated with compounds (25 μL of 5×). The compound concentrations were 10-0.0005 μM prepared in 3-fold serial dilutions with final DMSO concentration of 1%. The plates were then incubated for 24 h at 37° C./5% CO2 in a moist environment. Then Alamar Blue™ reagent (final concentration 1×-12.5 μL) was added to each well and incubated for 1.5 hours at 37° C./5% CO2. The plates were read on fluorescence reader at 540 nm excitation and 590 nm emission wavelengths. The IC50 values were subsequently determined using a sigmoidal dose-response curve (variable slope) in GraphPad Prism® 5 software. Table A-3, Table B-3 and Table C-3 show cell proliferation data for certain compounds as described herein.
# Human blood stability = type: in vitro ADME
# SJSA-1 = assay: Cell proliferation (Alamar Blue) assay, SJSA-1; type: cell-based, human; settings: Homo sapiens, SJSA-1, 24 h
# Method: as §1, §2
# [1] = Rat IV pharmacokinetics (2 mg/kg); type: in vivo; settings: male, SD, plasma, read-out: Rat IV-PK CL
# Text: Institutional Animal Ethical Committee (IAEC) of Jubilant Biosys (IAEC/JDC/2019/188R (for Mice) and IAEC/JDC/2019/189R (for Rat) nominated by CPCSEA (Committee for the Purpose of Control and Supervision of Experiments on Animals) approved the mice and rat pharmacokinetic experiments. Male Balb/c mice (˜6-8 weeks old with body weight range of 22-25 g) and male SD rats (6-8 weeks old with body weight range of 200-250 g) were procured from Vivo Biotech, Hyderabad, India. Animals were quarantined in Jubilant Biosys Animal House for a period of 7 days with a 12:12 h light: dark cycles, and prior to the study the animals were stratified as per body weight.
# B) Procedure for rat: Intravenous and oral pharmacokinetics study was done at a dose 2 and 10 mg/kg at dose volume of 2 and 10 mL/Kg. Serial blood sampling was done and at each time point (˜200 μL) were collected from retro-orbital plexus at 0.083 (Only for IV), 0.25, 0.5, 1, 2, 4, 8, 10 (only for PO) and 24 h. Blood samples were collected in tubes containing K2.EDTA as anticoagulant and centrifuged for 5 min at 10,000 rpm in a refrigerated centrifuge (Biofuge, Heraeus, Germany) maintained at 4° C. for plasma separation.
# Group I (IV) received test compound intravenously by tail vein at 2 mg/Kg in solution formulation prepared using 30% Kolliphore EL in WFI; dose volume: 2 mL/Kg; strength: 1 mg/mL.
# Blood concentration-time data of test compound was analyzed by non-compartmental method using Phoenix WinNonlin Version 8.1.
# A431 = assay: Cell proliferation (Alamar Blue) assay, A431; type: cell-based, human; settings: Homo sapiens, A-431, 24 h
# Method: as §1, §2
# [2] = Kinetic solubility (PBS, pH 7.4); type: physicochemical; settings: aqueous buffer, kinetic from dmso stock, Table B-4
# [3] = CD-1 Mouse Whole Blood Stability Assay; type: in vitro ADME; settings: Table B-6, incubation at 37° C.
# [4] = Table B-3, head prints SJSB-1, 24 h, read-out: IC50 (μM) SJSB-1
SMILES,"IC50 (786-O; Table B-3, 786-O cells)",IC50 (SJSA-1; [4]),"IC50 (A431; Table B-3, A431 cells)",further results
"C#CC(=O)N1[C@@H](CCCC)Cc2c([nH]c3ccccc23)[C@@H]1c1ccc(C(=O)NCCOC)cc1 [Compound B-3, 4-((1S,3S)-3-butyl-2-propioloyl-2,3,4,9-tetrahydro-1H-pyrido[3,4-b]indol-1-yl)-N-(2-methoxyethyl)benzamide]",0.009 µM,0.018 µM,4.7 µM,human blood stability % remaining (Human blood stability; 15 min): 90%_15; human blood stability % remaining (Human blood stability; 30 min): 55%_30; human blood stability % remaining (Human blood stability; 45 min): 36%_45; human blood stability % remaining (Human blood stability; 60 min): 22%_60; human blood stability % remaining (Human blood stability; 120 min): 1.5%_120; clearance [1]: 348 mL/min/kg; solubility kinetic [2]: 4 µM
C#CC(=O)N1[C@@H](CCCC)Cc2c([nH]c3ccccc23)[C@@H]1C12CC3CC(CC(C3)C1)C2 [Compound B-94],1.06 µM,1.37 µM,> 10 µM,
"C#CC(=O)N1[C@@H](CCCC)Cc2c([nH]c3ccccc23)[C@@H]1c1ccc(NC2CCC2)cc1 [Compound B-4, 1-((1S,3S)-3-butyl-1-(4-(cyclobutylamino)phenyl)-1,3,4,9-tetrahydro-2H-pyrido[3,4-b]indol-2-yl)prop-2-yn-1-one]",0.008 µM,0.015 µM,5.9 µM,
C#CC(=O)N1[C@@H](CCCC)Cc2c([nH]c3c(F)cc(F)cc23)[C@@H]1c1ccc(-c2nnn[nH]2)cc1 [Compound B-50],,,,CD-1 Mouse Whole Blood Stability % Remaining ([3]; 0 min): 100%; CD-1 Mouse Whole Blood Stability % Remaining ([3]; 30 min): 22.3%; CD-1 Mouse Whole Blood Stability % Remaining ([3]; 60 min): 10.5%
C#CC(=O)N1[C@@H](CCCC)Cc2c([nH]c3c(F)cc(F)cc23)[C@@H]1CCC [Compound B-73],0.14 µM,0.22 µM,> 10 µM,
C#CC(=O)N1C(c2ccn(-c3ccc(F)cc3)n2)c2[nH]c3ccccc3c2C[C@@H]1CCCC (stereo partly shown) [Compound B-62],0.029 µM,0.021 µM,6.4 µM,
C#CC(=O)N1[C@@H](CCCC)Cc2c([nH]c3c(F)cc(F)cc23)[C@@H]1CCC [Compound C-3],,,,"IC50 (786-O; Table C-3, 786-O cells): 0.14 µM; IC50 (SJSA-1; Table C-3, SJSA-1 cells, 24 h, read-out: IC50 (μM) SJSA-1): 0.22 µM; IC50 (A431; Table C-3, A431 cells): > 10 µM"
C#CC(=O)N1[C@@H](CCCC)Cc2c([nH]c3c(F)cc(F)cc23)[C@@H]1c1ccc(N2CCC2)c(C#N)c1 [Compound B-60],0.31 µM,0.706 µM,> 10 µM,
"C#CC(=O)N1[C@@H](CCCC)Cc2c([nH]c3ccccc23)[C@@H]1c1ccc(-c2nc(C)no2)cc1 [Compound B-2, 1-((1S,3S)-3-butyl-1-(4-(3-methyl-1,2,4-oxadiazol-5-yl)phenyl)-1,3,4,9-tetrahydro-2H-pyrido[3,4-b]indol-2-yl)prop-2-yn-1-one]",0.006 µM,0.014 µM,3.2 µM,
